Laboratory results as given in patent publication US5705687A, “Neurotropic drug and method for preparation of same” (priority 1993, dated 1998).
Where “and” joins values, the source holds several entries; their conditions need not be identical. Identical values can stand only once. Counter-ions that a name gives are not always drawn. Like-named read-outs stand apart in the source and are kept apart here.

Tests used:
[1] = system: central nervous system; assay: Neuropharmacological screening, overall findings; type: in vivo, mice; details: examined dosage range
Experimental: (§1) The myorelaxing effect of the new compounds was tested by the method of the "rotating rod"(Dunham N. W., Miga T. S., A note on a simplex apparatus for detecting neurological deficit in rat and mice, J. Am. Pharm. Ass., 1957, vol. 46, No. 3, pp. 208-209), which allows one to record any abnormalities in coordination and balance, as well as ataxia. The mice in the laboratory tests were placed on a horizontal rod, 2 cm in diameter, rotating at a speed of 5 revolutions per minute. The object was to register the number of mice which were able to maintain equilibrium on the rod for two minutes. Any presence of a myorelaxing component was considered to be a side effect of the substance being studied.

[2] = Solubility and hygroscopicity; type: physicochemical
[3] = system: mice; assay: Soporific action of barbital sodium
[4] = system: mice; assay: Hemic hypoxia (sodium nitrite), lifespan; type: in vivo; details: 400 mg/kg i.p., control
Experimental: (§2) The antihypoxic properties of the new compounds were tested in the models of hypoxic normobaric, hemic and histotoxic hypoxia. The hypoxic (hypercapnic) normobaric hypoxia was induced by placing the mice in hermetically sealed transparent boxes, subdivided into compartments, 80 cm^3 each. The animals were observed until all respiratory movements ceased. The hemic hypoxia was induced by the intraperitoneal administration of sodium nitrite in a dose of 400 mg/kg. The hystotoxic hypoxia was induced by the intraperitoneal administration of sodium nitroprussiate, in a dose of a 20 mg/kg dosage.

[5] = system: mice; assay: Conditioned reaction of passive avoidance (CPRA), amnesia by electric shock; type: in vivo; details: 250 to 500 mg/kg; earlier tests
From the text: The effect produced by the new substance on the processes of the central nervous system was examined on the model of one-time training of mice, of conditioned reaction of passive avoidance (CPRA), where the amnesic effect was produced by electric shock. During the tests, a two-section chamber was used to condition a certain reflex to the lit and darkened sections. First, for two minutes, the amount of time was registered, that a mouse spent in the lit section before entering the darkened section. Then, while in the darkened section, the animal would receive a single electric shock through the electrode floor (training). The training was immediately followed by an electric shock (50 Hz, 0.2 see). […] The substance was intraperitoneally administered 40 min. prior to the start of the training, the control group received a physiological solution. […] The anti-amnesic properties of the new compound are represented by an increase in the latent period before and after the training. (Δt)

[6] = system: mice; assay: Soporific action of hexobarbital
[7] = system: mice; assay: Histotoxic hypoxia (sodium nitroprussiate), lifespan; type: in vivo; details: 250, 500 and 1000 mg/kg (two values for three doses (so in the source))
Experimental: as §2

[8] = system: mice; assay: Spontaneous motor activity (SMA), 40-channel automatic motor meter; details: for Average SMA, M ± m: control 524.0 ± 99.2; for Relative change in activity (%): control = 100
[9] = cited from earlier work
[10] = background statement on the known drug; cited from earlier work
[11] = system: mice; assay: Rotating rod: myorelaxation and movement coordination; type: in vivo, white crossbred mice
Experimental: as §1

[12] = system: mice; assay: Orientation reflexes: test of ascent onto an inclined net
[13] = Acute toxicity in mice (Litchfield-Wilcockson); type: in vivo, white crossbred mice; details: mouse, in vivo

For `CC(C)(CO)C(=O)C(=O)NCCCC(=O)O` [KPA, N-(4-hydroxy-3,3-dimethyl-2-oxo-1-butyryl)γ-aminobutyric acid], the “depressing effect on the animals” value [1] was “no depressing effect”, the “solubility in acetone or chloroform” value ([2]; acetone, chloroform) was “not in acetone or chloroform” and the “solubility in water and alcohol” value ([2]; water, alcohol) was “readily soluble”.
In the case of `CCC1(CC)C(=O)NC(=O)NC1=O` [Barbitol sodium, barbital sodium, reference compound], the “Lateral position (min), barbiturate alone” value ([3]; 250 mg/kg i.p., control of each experiment) is reported as 31.8 ± 1.1 min and 34.5 ± 1.4 min and 38.1 ± 1.3 min.
For `O=N[O-].[Na+]` [Na-nitrite, sodium nitrite, reference compound], the “Average lifespan (sec), hypoxia inducer alone” value [4] was 790.5 ± 21.1 s.
With `CC(C)(CO)[C@@H](O)C(=O)NCCCC(=O)O` [pantogam, calcium salt of the D-homopantothenic acid, reference compound] the “anti-amnesic effect (in words)” value [5] was “moderate a anti-amnesic effect”, the “anti-amnesic effect, share of latent period in animals not exposed to the electric shock” value [5] was 60-75% and the “increase of soporific effect” value ([6]; 500 mg/kg, hexobarbital, indicated earlier) was 40%. The increase in lifespan [7] was 57% and 85%, the “increase of soporific effect” value ([3]; 500 mg/kg, barbital sodium, indicated earlier) was 20% and the “decrease in number of runs in the motor meter” value ([8]; 500 mg/kg) was 30%. For the same compound, the “Average SMA, M ± m” value ([8]; 500 mg/kg i.p.) was 392.0 ± 307, the “Relative change in activity (%)” value ([8]; 500 mg/kg i.p.) was 74.8% and the “Average SMA, M ± m” value ([8]; 1000 mg/kg i.p., P < 0.05) was 176.0 ± 116. The “Relative change in activity (%)” value ([8]; 1000 mg/kg i.p.) was 33.6%, the “decrease in motor activity” value ([8]; 1000 mg/kg, the maximum tolerable dose) was 70% and the “effect on motor activity (in words)” value ([8]; SMA test, mice) was “depressing effect on motor activity”. For the same compound, the undesirable side effects ([9]; known drug, high dose) was “depression and myorelaxation”, the “penetration of the hematoencephalitic barrier compared to aminalon” value ([9]; vs aminalon) was “better penetration” and the therapeutic index [10] was 3.3. The “loss of movement coordination (side effect)” value ([11]; 300 mg/kg and higher) was “loss of movement coordination”, the “time of maximum strength” value ([11]; after injection, rotating rod) was 30 min and the “return of movement coordination and muscle strength (not until)” value ([11]; after the start of the experiment) was 1.5 h. For the same compound, the ED50 ([12]; Mus musculus, ip, read-out: average effective dose (DE50)) was 680 mg/kg, the “time of maximum strength” value ([12]; after administration, orientation reflex) was 60 min and the “effect on orientation reflex” value ([12]; mice) was “suppressed the orientation reflex”. It also gave an LD50 ([13]; intravenous, read-out: DL50 (the source's name)) of 1080 mg/kg, an LD50 ([13]; ip, earlier experiments, identical conditions, read-out: DL50 (acute toxicity)) of 2250 mg/kg and an MTD ([13]; ip, read-out: maximum tolerance level) of 1000 mg/kg.
For `CN1C(=O)NC(=O)C(C)(C2=CCCCC2)C1=O` (stereo not shown) [hexobarbital, reference compound], the “Duration of sleep (min), barbiturate alone” value ([6]; 100 mg/kg i.p., control) was 46.3 ± 2.3 min and the “Lateral position (min), barbiturate alone” value ([6]; 100 mg/kg i.p., control) was 2.4 ± 0.15 min.
